Where two headings read alike, the source gives them in different places.
What was measured:
Assay type in all cases: cell-based, Hepatitis C virus
HCV genotype 1b replicon = HCV genotype 1b replicon assay; conditions: Hepatitis C virus
Source text: (§1) [drawing 14] employs a biphenyl linker between the imidazole moieties. See WO2008021927(BMS). The EC50 values of BMS-790052 against different HCV genotypes were shown by Nettles et al., “BMS-790052 is a First-in-class Potent Hepatitis C Virus (HCV) NS5A Inhibitor for Patients with Chronic HCV Infection: Results from a Proof-of-concept Study”, 59th Annual Meeting of the American Association for the Study of Liver Diseases (Oct. 31-Nov. 1, 2008, San Francisco, Calif.; www.natap.org/2008/AASLD/AASLD_06.htm). […] See also Gao et al., NATURE 465:96-100 (2010). The compounds in Table 1 use different linkers between the imidazole moieties. Table 1 depicts the EC50 values of these compounds when tested using respective replicon assays in the presence of 5% (v/v) fetal bovine serum (FBS).
(§2) Table 2 compares compounds containing unsubstituted benzimidazole to those containing halo-substituted benzimidazole. Anti-viral activities were assessed using wild-type replicons (e.g., 1b WT or 1a WT) as well as replicons containing specific NS5A mutations (e.g., 1b L28T, 1b Y93H, 1a L31V, 1a Y93C, 1a M28V, or 1a Q30E) in the absence of FBS.
(§3) Table 3 compares compounds with different linkers between the benzimidazole moieties. Anti-viral activities were determined using 1a and 1b replicon assays. “HP” refers to human plasma. […] As compared to the phenyl linker

HCV genotype 1a replicon = HCV genotype 1a replicon assay; conditions: Hepatitis C virus
Source text: as §1, §2, §3

HCV genotype 3a replicon = HCV genotype 3a replicon assay; conditions: Hepatitis C virus, read-out: EC50 (nM, in the absence of HP) 3a, absence of human plasma; Table 5
Source text: as §1

HCV genotype 4a replicon = HCV genotype 4a replicon assay; conditions: Hepatitis C virus, absence of human plasma; Table 5; read-out: EC50 (nM, in the absence of HP) 4a
Source text: as §1

HCV genotype 2b replicon = HCV genotype 2b replicon assay; conditions: Hepatitis C virus, absence of human plasma; Table 5; read-out: EC50 (nM, in the absence of HP) 2b
Source text: as §1

HCV genotype 2a replicon = HCV genotype 2a replicon assay; conditions: Hepatitis C virus, absence of human plasma; Table 5; read-out: EC50 (nM, in the absence of HP) 2a
Source text: as §1

[1] = 5% FBS and 40% human plasma, Table 3, read-out: EC50 (nM, in the presence of 5% FBS and 40% HP) 1b
[2] = 5% FBS, Table 3, read-out: EC50 (nM, in the presence of 5% FBS) 1b
[3] = 5% FBS and 40% human plasma, Table 3, read-out: EC50 (nM, in the presence of 5% FBS and 40% HP) 1a
[4] = 5% FBS, Table 3, read-out: EC50 (nM, in the presence of 5% FBS) 1a
[5] = 40% human plasma, Table 5, read-out: EC50 (nM, in the presence of 40% HP) 1b
[6] = 40% human plasma, Table 5, read-out: EC50 (nM, in the presence of 40% HP) 1a

SMILES | EC50 (HCV genotype 1b replicon; [5]) [nM] | EC50 (HCV genotype 3a replicon) [nM] | EC50 (HCV genotype 4a replicon) [nM] | EC50 (HCV genotype 2b replicon) [nM] | EC50 (HCV genotype 2a replicon) [nM] | EC50 (HCV genotype 1a replicon; [6]) [nM] | further results
COC(=O)N[C@H](C(=O)N1CCC[C@H]1c1nc2cc([C@H]3CC[C@H](c4ccc5[nH]c([C@@H]6CCCN6C(=O)[C@@H](NC(=O)OC)C(C)C)nc5c4)N3)ccc2[nH]1)C(C)C |  |  |  |  |  |  | EC50 (HCV genotype 1b replicon; [1]): > 4500 nM; EC50 (HCV genotype 1b replicon; [2]): > 250 nM; EC50 (HCV genotype 1a replicon; [3]): 2500 to 8000 nM; EC50 (HCV genotype 1a replicon; [4]): > 250 nM
COC(=O)N[C@H](C(=O)N1CCC[C@H]1c1nc2cc(-c3ccc(-c4ccc5nc([C@@H]6CCCN6C(=O)[C@@H](NC(=O)OC)C(C)C)[nH]c5c4)nc3)ccc2[nH]1)C(C)C |  |  |  |  |  |  | EC50 (HCV genotype 1b replicon; [1]): < 3.2 nM; EC50 (HCV genotype 1b replicon; [2]): < 0.32 nM; EC50 (HCV genotype 1a replicon; [3]): < 3.2 nM; EC50 (HCV genotype 1a replicon; [4]): < 0.32 nM
CCOC(=O)N[C@H](C(=O)N1CCC[C@H]1c1nc2cc(-c3ccc(-c4ccc5nc([C@@H]6CCCN6C(=O)[C@@H](NC(=O)OCC)C(C)C)[nH]c5c4)nc3)ccc2[nH]1)C(C)C |  |  |  |  |  |  | EC50 (HCV genotype 1b replicon; [1]): 190 nM; EC50 (HCV genotype 1b replicon; [2]): 2.9 nM; EC50 (HCV genotype 1a replicon; [3]): 83 nM; EC50 (HCV genotype 1a replicon; [4]): 6.8 nM
COC(=O)N[C@H](C(=O)N1CCC[C@H]1C(=O)Nc1ccc([C@@H]2CC[C@@H](c3ccc(NC(=O)[C@@H]4CCCN4C(=O)[C@@H](NC(=O)OC)C(C)C)cc3)N2)cc1)C(C)C |  |  |  |  |  |  | EC50 (HCV genotype 1b replicon; 5% FBS and 40% human plasma, Table 4, read-out: EC50 (nM, in the presence of 5% FBS and 40% HP) 1b): 2400 nM; EC50 (HCV genotype 1b replicon; 5% FBS, Table 4, read-out: EC50 (nM, in the presence of 5% FBS) 1b): 320 nM; EC50 (HCV genotype 1a replicon; 5% FBS and 40% human plasma, Table 4, read-out: EC50 (nM, in the presence of 5% FBS and 40% HP) 1a): 1200 nM; EC50 (HCV genotype 1a replicon; 5% FBS, Table 4, read-out: EC50 (nM, in the presence of 5% FBS) 1a): 290 nM
COC(=O)N[C@H](C(=O)N1CCC[C@H]1c1nc2cc([C@H]3CC[C@H](c4ccc5[nH]c([C@@H]6CCCN6C(=O)[C@@H](NC(=O)OC)C(C)C)nc5c4)N3c3ccc(C(C)(C)C)cc3)ccc2[nH]1)C(C)C | 0.3 | ≤ 0.05 | ≤ 0.05 | ≤ 0.05 | 0.2 | 0.1 | 
COC(=O)N[C@H](C(=O)N1CCC[C@H]1c1nc2cc([C@H]3CC[C@H](c4ccc5[nH]c([C@@H]6CCCN6C(=O)[C@@H](NC(=O)OC)C(C)C)nc5c4)N3c3ccc(C4CC4)cc3)ccc2[nH]1)C(C)C | 0.3 | ≤ 0.05 | ≤ 0.05 | ≤ 0.05 | ≤ 0.05 | 0.1 | 
COC(=O)N[C@H](C(=O)N1C[C@@H](OC)C[C@H]1c1nc2cc([C@H]3CC[C@H](c4ccc5[nH]c([C@@H]6C[C@H](OC)CN6C(=O)[C@@H](NC(=O)OC)C(C)C)nc5c4)N3c3ccc(C(C)(C)C)cc3)ccc2[nH]1)C(C)C | 0.8 |  |  |  |  | 0.3 | 
COC(=O)N[C@H](C(=O)N1CCC[C@H]1c1nc2cc([C@H]3CC[C@H](c4ccc5[nH]c([C@@H]6CCCN6C(=O)[C@@H](NC(=O)OC)C(C)C)nc5c4)N3c3ccc(N4CCCCC4)c(F)c3)ccc2[nH]1)C(C)C | 0.4 | ≤ 0.05 | ≤ 0.05 | ≤ 0.05 | ≤ 0.05 | 0.2 | 
COC(=O)N[C@H](C(=O)N1CCC[C@H]1c1nc2ccc([C@H]3CC[C@H](c4ccc5nc([C@@H]6CCCN6C(=O)[C@@H](NC(=O)OC)C(C)C)[nH]c5c4)N3c3ccc(C4CC4)cc3F)cc2[nH]1)C(C)C | 0.2 | ≤ 0.05 | ≤ 0.05 | ≤ 0.05 | ≤ 0.05 | 0.1 | 
COC(=O)N[C@H](C(=O)N1CCC[C@H]1c1nc2cc([C@H]3CC[C@H](c4ccc5[nH]c([C@@H]6CCCN6C(=O)[C@@H](NC(=O)OC)C(C)C)nc5c4)N3c3ccc(N4CCCCC4)c(Cl)c3)ccc2[nH]1)C(C)C | 0.2 | ≤ 0.05 | ≤ 0.05 | ≤ 0.05 | ≤ 0.05 | 0.2 | 
COC(=O)N[C@H](C(=O)N1CCC[C@H]1c1nc2cc([C@H]3CC[C@H](c4ccc5[nH]c([C@@H]6CCCN6C(=O)[C@@H](NC(=O)OC)C(C)C)nc5c4)N3c3cc(F)c(N4C[C@H]5CCCC[C@H]5C4)c(F)c3)ccc2[nH]1)C(C)C [Example 4.3, methyl{(2S)-1-[(2S)-2-{5-[(2R,5R)-1-{3,5-difluoro-4-[(3aR,7aS)-octahydro-2H-isoindol-2-yl]phenyl}-5-{2-[(2S)-1-{(2S)-2-[(methoxycarbonyl)amino]-3-methylbutanoyl}pyrrolidin-2-yl]-1H-benzimidazol-5-yl}pyrrolidin-2-yl]-1H-benzimidazol-2-yl}pyrrolidin-1-yl]-3-methyl-1-oxobutan-2-yl}carbamate] | 0.2 |  |  |  |  | 0.1 | 

From patent publication US9586978B2, “Anti-viral compounds” (AbbVie Inc., priority 2009, dated 2017)
